Results taken from patent US4304781A, “Treatment of ulcers and hypertension” (John Wyeth & Brother Limited, priority 1978, dated 1981).

Legend:
Format in all cases: in vivo
stress-induced erosion = assay: Stress-induced erosion test (Senay & Levine), anti-ulcer activity
Method: (§1) Anti-ulcer activity was determined by the stress-induced erosion test of Senay & Levine, Proc. Soc. Exp. Biol. Med., 124, 1221-1223 (1967) and anti-secretory activity by the test of H. Shay, D. Sun and H. Greenstin, Gastroenterology, 1954, 26, 903-913 as exemplified by Beattie et al J. Med. Chem., 20, 714 (1977). […] However, some compounds show activity in tests for anti-hypertensive activity.

hypersecretion = assay: Anti-secretory activity test (Shay et al); design: key to Anti-secretory, % change in Vol.: NS: Not Significant; details: for change in vivo at 30 mg/kg / change in vivo at 10 mg/kg: read-out: Anti-secretory, % change in Vol.; for change in vivo at 30 mg/kg / Anti-secretory, % change in Vol.: 30 mg/kg
Method: as §1

[1] = tested on: male spontaneously hypertensive rats; assay: Antihypertensive activity, Procedure A: systolic pressure of spontaneously hypertensive rats
Method: Systolic pressure of male spontaneously hypertensive rats is measured by an indirect technique using the Decker Caudal Plethysmograph or other appropriate sensor. Groups usually consist of 4 rats. Drugs are usually administered orally. Pressures are usually read prior to drug administration and at 1.5, 4 and 24 hours thereafter. This schedule may be altered depending upon the behaviour of the drug.

| Structure (SMILES) | inhibition in vivo at 100 mg/kg (stress-induced erosion) [%] | change in vivo at 30 mg/kg (hypersecretion) [%] | Anti-secretory, % change in Vol. (hypersecretion) | also measured |
| --- | --- | --- | --- | --- |
| C[n+]1ccccc1SCc1ccccc1 [Example 1, 2-Benzylthio-1-methylpyridinium bromide] | 75 | -71 | – | inhibition in vivo at 30 mg/kg (stress-induced erosion): 92% |
| C[n+]1ccccc1SCCc1ccccc1 [Example 2, 1-Methyl-2-(2-phenylethylthio) pyridinium bromide] | 67 | -56 | – | inhibition in vivo at 30 mg/kg (stress-induced erosion): 83%; change in vivo at 10 mg/kg (hypersecretion): -20%; Antihypertensive activity (Procedure A) ([1]; 75 mg/kg orally): showed activity |
| C[n+]1ccccc1SCc1ccc(Cl)cc1 [Example 3, 2-(4-Chlorobenzylthio)-1-methylpyridinium chloride] | 83 | -77 | – | Antihypertensive activity (Procedure A) ([1]; 75 mg/kg orally): inactive |
| C[n+]1ccccc1SCc1ccc(Cl)c(Cl)c1 [Example 4, 2-(3,4-Dichlorobenzylthio)-1-methylpyridinium chloride] | 67 | -45 | – | Antihypertensive activity (Procedure A) ([1]; 75 mg/kg orally): showed activity |
| C[n+]1ccccc1SCc1c(Cl)cccc1Cl [Example 5, 2-(2,6-Dichlorobenzylthio)-1-methylpyridinium chloride] | 70 | -65 | – | change in vivo at 10 mg/kg (hypersecretion): -35%; Antihypertensive activity (Procedure A) ([1]; 75 mg/kg orally): showed activity |
| C[n+]1ccccc1SCc1ccc([N+](=O)[O-])cc1 [Example 6, 1-Methyl-2-(4-nitrobenzylthio)pyridinium bromide] | 84 | – | NS | – |
| C[n+]1ccccc1SCCCc1ccccc1 [Example 7, 1-Methyl-2-(3-phenylpropylthio)pyridinium bromide] | 77 | – | NS | – |
| Cc1ccc(CSc2cccc[n+]2C)cc1C [Example 8, 1-Methyl-2-(3,4-dimethylbenzylthio)pyridinium chloride] | 62 | – | NS | inhibition in vivo at 30 mg/kg (stress-induced erosion): 70% |
| CC(CSc1cccc[n+]1C)c1ccccc1 (centres unmarked) [Example 9, 1-Methyl-2-(2-phenylpropylthio)pyridinium bromide] | – | -32 | – | – |
| Cc1ccc(CSc2cccc[n+]2C)cc1 [Example 10, 1-Methyl-2(4-methylbenzylthio)pyridinium bromide] | – | -43 | – | – |
| C[n+]1ccccc1SCc1ccc(Br)cc1 [Example 13, 2-(4-Bromobenzylthio)-1-methylpyridinium bromide] | 70 | – | NS | inhibition in vivo at 30 mg/kg (stress-induced erosion): 73% |
| C[n+]1ccccc1SCc1ccc(OCc2ccccc2)cc1 [Example 14, 2-(((4-Benzyloxy)benzyl)thio)-1-methylpyridinium chloride] | 90 | -49 | – | inhibition in vivo at 10 mg/kg (stress-induced erosion; 10 mg/kg): 60%; inhibition in vivo at 30 mg/kg (stress-induced erosion): 73%; change in vivo at 10 mg/kg (hypersecretion): -19% |
| C[n+]1ccccc1SCC(=O)c1ccccc1 [Example 15, 1-Methyl-2-phenacylthiopyridinium bromide] | 100 | – | NS | Antihypertensive activity (Procedure A) ([1]; 75 mg/kg orally): showed activity |
| C[n+]1ccccc1SCC=Cc1ccccc1 [Example 16, 2-Cinnamylthio-1-methylpyridinium bromide] | – | -55 | – | – |
| C[n+]1ccccc1SCc1cccc(Br)c1 [Example 17, 2-(3-Bromobenzylthio)-1-methylpyridinium bromide] | 64 | -52 | – | Antihypertensive activity (Procedure A) ([1]; 50 mg/kg orally): inactive |
| CC(C)c1ccc(CSc2cccc[n+]2C)cc1 [Example 18, 2-((-4-Isopropylbenzyl)thio)-1-methylpyridinium chloride] | 71 | -39 | – | inhibition in vivo at 30 mg/kg (stress-induced erosion): 60%; Antihypertensive activity (Procedure A) ([1]; 50 mg/kg orally): inactive |
| CCOC(OCC)c1ccc[n+](-c2ccccc2)c1SCc1ccccc1 [Example 19, 2-Benzylthio-3-(diethoxy)methyl-1-phenylpyridinium chloride] | – | -88 | – | – |
| C[n+]1ccccc1SCc1ccccc1F [Example 20, 2-((2-Fluorobenzyl)thio)-1-methyloyridinium chloride] | 70 | -90 | – | inhibition in vivo at 30 mg/kg (stress-induced erosion): 76%; change in vivo at 10 mg/kg (hypersecretion): -54% |
| C[n+]1ccccc1SCc1ccc(F)cc1 [Example 21, 2((4-Fluorobenzyl)thio)-1-methylpyridinium chloride] | 82 | -67 | – | inhibition in vivo at 30 mg/kg (stress-induced erosion): 71% |
| C[n+]1ccccc1SCc1cccc(F)c1 [Example 22, 2-((-3-Fluorobenzyl)thio)-1-methylpyridinium chloride] | 72 | -69 | – | inhibition in vivo at 30 mg/kg (stress-induced erosion): 64% |
| C[n+]1ccc(SCc2ccccc2)cc1 [Example 23, 4-Benzylthio-1-methylpyridinium bromide] | 80 | – | NS | inhibition in vivo at 30 mg/kg (stress-induced erosion): 70% |

| Structure (SMILES) | inhibition in vivo at 100 mg/kg (stress-induced erosion) [%] | change in vivo at 30 mg/kg (hypersecretion) [%] | Anti-secretory, % change in Vol. (hypersecretion) | also measured |
| --- | --- | --- | --- | --- |
| C[n+]1ccc(SCc2cccc(Cl)c2)cc1 [Example 24, 4-((3-Chlorobenzyl)thio)-1-methylpyridinium chloride] | 23 | -40 | – | inhibition in vivo at 30 mg/kg (stress-induced erosion): 60% |
| Cc1cccc(CSc2cccc[n+]2C)c1 [Example 25, 1-Methyl-2-((3-methylbenzyl)thio)pyridinium chloride] | 80 | -69 | – | inhibition in vivo at 30 mg/kg (stress-induced erosion): 75% |
| COc1ccc(CSc2cccc[n+]2C)cc1 [Example 26, 2-((4-Methoxybenzyl)thio)-1-methylpyridinium chloride] | – | -46 | – | – |
| C[n+]1ccccc1SCc1ccccc1Cl [Example 27, 2-((2-Chlorobenzyl)thio)-1-methylpyridinium chloride] | – | -66 | – | change in vivo at 10 mg/kg (hypersecretion): -39% |
| C[n+]1ccccc1SCc1cc(Cl)cc(Cl)c1 [Example 28, 2-(3,5-Dichlorobenzyl)thio)-1-methylpyridinium chloride] | – | -55 | – | – |
| C[n+]1cccc(C=O)c1SCc1ccccc1 [Example 29, 2-Benzylthio-3-formyl-1-methylpyridinium bromide] | 71 | -48 | – | – |
| OCc1ccc[n+](-c2ccccc2)c1SCc1ccccc1 [Example 30, 2-Benzylthio-3-hydroxymethyl-1-phenylpyridinium bromide] | 71 | -42 | – | – |
| Clc1cccc(CSc2ccncc2)c1 [Example 31, 4((3-Chloro)benzylthio)pyridine] | 62 | -34 | – | – |
| C[n+]1ccccc1SCc1cccc([N+](=O)[O-])c1 [Example 32, 1-Methyl-2-((3-nitro)benzylthio)pyridinium chloride] | 73 | – | NS | – |
| Cc1ccccc1CSc1cccc[n+]1C [Example 33, 1-Methyl-2-((2-methyl)benzylthio)pyridinium bromide] | 73 | – | NS | – |
| c1ccc(CSc2ccncc2)cc1 [Example 34, 4-Benzylmercaptopyridine] | 64 | – | NS | – |
| C[n+]1ccccc1SCc1cccc(I)c1 [Example 35, 2-((3-Iodobenzyl)thio)-1-methylpyridinium chloride] | 67 | -41 | – | – |
| COc1cccc(CSc2cccc[n+]2C)c1 [Example 36, 2-((3-Methoxybenzyl)thio)-1-methylpryridinum chloride] | 69 | – | NS | – |
| C[n+]1ccccc1SCc1cccc(C(F)(F)F)c1 [Example 37, 1-Methyl-2-((3-trifluoromethylbenzyl)thio)pyridinium chloride] | – | – | NS | Antihypertensive activity (Procedure A) ([1]; 50 mg/kg orally): showed activity |
| c1ccc(CSc2ccccn2)cc1 [Example 38, 2-((Benzyl)thio)pyridine] | – | -32 | – | – |
| C[n+]1ccccc1SC(c1ccccc1)c1ccccc1 [Example 39, 2-((Diphenylmethyl)thio)-1-methyloyridinium bromide] | – | – | NS | Antihypertensive activity (Procedure A) ([1]; 50 mg/kg orally): showed activity |
| C[n+]1ccccc1SCCCCc1ccccc1 [Example 40, 1-Methyl-2-((4-phenylbutyl)thio)pyridinium bromide] | 67 | -36 | – | – |
| O=[N+]([O-])c1ccc(C[n+]2ccccc2SCc2ccccc2)cc1 [Example 41, 1-(4-Nitrobenzyl)-2-(benzylthio)-pyridinium bromide] | 69 | – | NS | – |
| c1ccc(CSC2=NCCCC2)cc1 [Example 43, 2-Benzylthio-3,4,5,6-tetrahydropyridine] | – | -48 | – | – |
| C[N+]1=C(SCc2ccccc2)CCCC1 [Example 44, 2-Benzylthio-3,4,5,6-tetrahydro-1-methylpyridinium bromide] | – | -52 | – | – |
| c1ccc(CSc2cccc[n+]2Cc2ccccc2)cc1 [Example 45, 1-Benzyl-2-(benzylthio)pyridinium bromide] | – | -75 | – | – |
